From patent publication US20210259949A1, “USE OF A BIXA ORELLANA EXTRACT” (BASF Beauty Care Solutions France SAS, priority 2018, published 2021)

Test system: IGFBP3 protein
Assay: Quantification of IGFBP3 protein by ELISA in supernatant of normal human keratinocytes
Format: cell-based
Conditions: IGF-1 at 100 ng/ml, 24 h, related to non-treated cells (100), NS
Experimental: Normal human keratinocytes were cultured up to 70% confluence, then treated for 24 h with IGF-1 at 100 ng/ml or the Bixa orellana extract obtained according to Example 1a) before mixing with maltodextrin and spray-drying at 0.1% or 0.05% (w/w in the total medium) for 24 h. The cells are lysed for assaying the DNA, and the supernatant is used for the quantification of the IGFBP3 protein by ELISA according to the protocol of the supplier of the ELISA kit (LSBio Human IGFBP3 ELISA Kit ref LS-F24538 lot 103180).
The results are related to non-treated cells. A statistical t-test test is carried out, and the means are compared.

## IGF-1: growth factor insulin-like growth factor type 1 (IGF1), used at 100 ng/ml
  IGFBP3 protein, Mean: 128.195
